Read-outs that look alike come from different tables or passages of the source.
What was measured:
Type in all cases: in vivo
[1] = tested on: Plutella xylostella; test: Activity determination of killing Plutella xylostella (Airbrush spray, cabbage leaf discs); conditions: foliar; for mortality at 0.3125 µg/mL: read-out: Mortality (%, on 3rd day after administration) 0.3125 mg/L; for mortality at 0.625 µg/mL: read-out: Mortality (%, on 3rd day after administration) 0.625 mg/L
Experimental: (§1) The compounds to be tested were dissolved in a mixed solvent of acetone/methanol (1:1) and then diluted to desired concentrations with water containing 0.1% (wt) Tween 80.
(§2) With Mythimna separata and Plutella xylostella as targets, the activity was determined by Airbrush spray method.
Determination method: Cabbage leaves were punched into leaf discs with the diameter of 2 cm by a puncher, the pressure of Airbrush spray treatment is 10 psi (about 0.7 kg/cm^2), and the compounds to be tested were sprayed onto the front and back surfaces of each leaf disc at a liquid amount of 0.5 mL. After drying in the shade, 10 3rd instar larvae were inoculated to each treatment, and each treatment was repeated for 3 times. After the treatment, the larvae were placed in an observation room for culture at 25° C. with relative humidity of 60-70%. On 3rd day after administration, the number of surviving larvae was investigated, and the mortality was calculated.
Some compounds of the present disclosure and control compounds were selected to carry out parallel comparative experiments of the insecticidal activity against Plutella xylostella (on 3rd day after administration), and the determination method was the same as above.

[2] = tested on: Dermacentor variabilis; test: Insecticidal test on Dermacentor variabilis (compound film in culture dish); conditions: 1 μg/cm^2, 1st nymphs, after 24 h, 25° C., read-out: insect mortality (Dermacentor variabilis)
Experimental: (§3) 4 mg of compounds to be tested were dissolved in 40 mL of acetone to obtain acetone solutions with a concentration of 100 mg/L. Bottom surfaces and side surfaces of 2 culture dishes with an inner diameter of 5.3 cm were coated with 400 μL of the drug solutions, and when the acetone was volatilized, films of the compounds of the present disclosure were prepared on inner walls of the culture dishes. The inner walls of the culture dishes used were 40 cm^2, and a dose of the treatment drugs was 1 μg/cm^2. 10 1st nymphs of Dermacentor variabilis (males and females were mixed) were placed in the culture dishes. The 2 culture dishes were combined, sealed with tape at a junction portion to prevent escape of the nymphs, and then stored in a constant-temperature room at 25° C. The number of dead insects was checked after 24 h, and the insect mortality was calculated. The test was repeated for 3 times. Test results: The insect mortality of compounds 1, 2, 3, 4, 5, 11, 12, 18, 32, 33, 34, 46, 60, 74, 88, 99, 101, 102, 104, 105, 108, 109, 110, 111, 113 and 114 is 70% or above.

[3] = tested on: Mythimna separata; test: Activity determination of killing Mythimna separata (Airbrush spray, corn leaf segments); conditions: foliar, dose 1.25 mg/L, 3rd instar larvae, 3rd day after administration, read-out: mortality against Mythimna separata
Experimental: as §1, §2
Determination method: Corn leaves were cut into leaf segments with the length of 2 cm, the pressure of Airbrush spray treatment is 10 psi (about 0.7 kg/cm^2), and the compounds to be tested were sprayed onto the front and back surfaces of each leaf segment at a liquid amount of 0.5 mL. After drying in the shade, 10 3rd instar larvae were inoculated to each treatment, and each treatment was repeated for 3 times. After the treatment, the larvae were placed in an observation room for culture at 25° C. with relative humidity of 60-70%. On the 3rd day after administration, the number of surviving larvae was investigated, and the mortality was calculated.

[4] = tested on: Ctenocephalides felis; test: Insecticidal test on Ctenocephalides felis (compound film in culture dish); conditions: 1 μg/cm^2; adult Ctenocephalides felis; after 72 h; 25° C.; read-out: insect mortality (Ctenocephalides felis)
Experimental: as §3, with “of” for “of 2”, “adult Ctenocephalides felis” for “1st nymphs of Dermacentor variabilis”, “dishes, and the” for “dishes. The 2”, “covered” for “combined, sealed with tape at a junction portion to prevent escape of the nymphs,”, “72” for “24”

[5] = tested on: Tetranychus cinnabarinus; test: Greenhouse acaricidal activity on adult acarids of Tetranychus cinnabarinus (spraying of Phaseolus vulgaris seedlings); conditions: dose 1.25 mg/L, after 72 h, read-out: mortality against adult acarids of Tetranychus cinnabarinus
Experimental: According to the solubility of the compounds to be tested, the compounds to be tested were dissolved in acetone or dimethyl sulfoxide and prepared into 50 mL of solutions to be tested at desired concentrations with a 0.1% Tween 80 solution, where the content of the acetone or dimethyl sulfoxide in the solutions was not higher than 10%.
Two true leaves of Phaseolus vulgaris seedlings were taken, and 30-40 adult acarids of Tetranychus cinnabarinus were inoculated. After the cardinal number was investigated, the whole plants were subjected to spraying treatment with a hand-held sprayer, each treatment was repeated for 3 times, and the plants were placed in a standard observation room after the treatment. The number of surviving acarids was investigated after 72 h, and the mortality was calculated.

[6] = 0.3125 mg/L, parallel comparative experiment, 3rd day after administration
[7] = 0.625 mg/L, parallel comparative experiment, 3rd day after administration
[8] = 1.25 mg/L, parallel comparative experiment, 3rd day after administration, read-out: Mortality (%, on 3rd day after administration) 1.25 mg/L
[9] = read-out: Mortality (%, on 3rd day after administration) 1.25 mg/L
[10] = dose 1.25 mg/L, 3rd instar larvae, 3rd day after administration, read-out: mortality against Plutella xylostella

O=C(NC1CC1)c1cc(-c2cnn(-c3c(Cl)cc(C(F)(C(F)(F)F)C(F)(F)F)cc3Cl)c2)cnc1Cl [CK1, reference compound]
mortality at 0.3125 µg/mL [1, 6]: 20% | mortality at 0.625 µg/mL [1, 7]: 66.7% | mortality at 1.25 µg/mL [1, 8]: 100%

CN(C(=O)c1cc(-c2cnn(-c3c(Cl)cc(C(F)(C(F)(F)F)C(F)(F)F)cc3Cl)c2)cnc1Cl)C1CC1 [CK2, reference compound]
mortality at 0.3125 µg/mL [1]: 13.3% | mortality at 0.625 µg/mL [1]: 60% | mortality at 1.25 µg/mL [1, 9]: 93.3%

N#CC1(NC(=O)c2cc(-c3cnn(-c4c(Cl)cc(C(F)(C(F)(F)F)C(F)(F)F)cc4Cl)c3)cnc2Cl)CC1 [CK3, reference compound]
mortality at 0.3125 µg/mL [1]: 30% | mortality at 0.625 µg/mL [1]: 60% | mortality at 1.25 µg/mL [1, 9]: 100%

CN(C(=O)c1cc(-c2cnn(-c3c(Cl)cc(C(F)(C(F)(F)F)C(F)(F)F)cc3Cl)c2)cnc1Cl)C1(C#N)CC1 [CK4, reference compound]
mortality at 0.3125 µg/mL [1]: 20% | mortality at 0.625 µg/mL [1]: 56.7% | mortality at 1.25 µg/mL [1, 9]: 90%

C=CCN(C(=O)c1cc(-c2cnn(-c3c(Cl)cc(C(F)(C(F)(F)F)C(F)(F)F)cc3Cl)c2)cnc1Cl)C1CC1 [Compound 1]
mortality at 1 µg/cm2 [2]: ≥ 70% | mortality at 1.25 µg/mL [3]: ≥ 90% | mortality at 0.3125 µg/mL [1, 6]: 93.3% | mortality at 0.625 µg/mL [1, 7]: 100% | mortality at 1.25 µg/mL [1, 8]: 100% | mortality at 1.25 µg/mL [1, 10]: ≥ 90% | mortality at 1 µg/cm2 [4]: ≥ 70% | mortality at 1.25 µg/mL [5]: ≥ 90%

C#CCN(C(=O)c1cc(-c2cnn(-c3c(Cl)cc(C(F)(C(F)(F)F)C(F)(F)F)cc3Cl)c2)cnc1Cl)C1CC1 [Compound 2]
mortality at 1 µg/cm2 [2]: ≥ 70% | mortality at 1.25 µg/mL [3]: ≥ 90% | mortality at 0.3125 µg/mL [1, 6]: 90% | mortality at 0.625 µg/mL [1, 7]: 100% | mortality at 1.25 µg/mL [1, 8]: 100% | mortality at 1.25 µg/mL [1, 10]: ≥ 90% | mortality at 1 µg/cm2 [4]: ≥ 70% | mortality at 1.25 µg/mL [5]: ≥ 90%

O=C(c1cc(-c2cnn(-c3c(Cl)cc(C(F)(C(F)(F)F)C(F)(F)F)cc3Cl)c2)cnc1Cl)N(CC1CC1)C1CC1 [Compound 3]
mortality at 1 µg/cm2 [2]: ≥ 70% | mortality at 1.25 µg/mL [3]: ≥ 90% | mortality at 0.3125 µg/mL [1, 6]: 76.7% | mortality at 0.625 µg/mL [1, 7]: 100% | mortality at 1.25 µg/mL [1, 8]: 100% | mortality at 1.25 µg/mL [1, 10]: ≥ 90% | mortality at 1 µg/cm2 [4]: ≥ 70% | mortality at 1.25 µg/mL [5]: ≥ 90%

N#CCN(C(=O)c1cc(-c2cnn(-c3c(Cl)cc(C(F)(C(F)(F)F)C(F)(F)F)cc3Cl)c2)cnc1Cl)C1CC1 [Compound 4]
mortality at 1 µg/cm2 [2]: ≥ 70% | mortality at 1.25 µg/mL [3]: ≥ 90% | mortality at 0.3125 µg/mL [1, 6]: 100% | mortality at 0.625 µg/mL [1, 7]: 100% | mortality at 1.25 µg/mL [1, 8]: 100% | mortality at 1.25 µg/mL [1, 10]: ≥ 90% | mortality at 1 µg/cm2 [4]: ≥ 70% | mortality at 1.25 µg/mL [5]: ≥ 90%

N#CCCN(C(=O)c1cc(-c2cnn(-c3c(Cl)cc(C(F)(C(F)(F)F)C(F)(F)F)cc3Cl)c2)cnc1Cl)C1CC1 [Compound 5]
mortality at 1 µg/cm2 [2]: ≥ 70% | mortality at 1.25 µg/mL [3]: ≥ 90% | mortality at 0.3125 µg/mL [1, 6]: 100% | mortality at 0.625 µg/mL [1, 7]: 100% | mortality at 1.25 µg/mL [1, 8]: 100% | mortality at 1.25 µg/mL [1, 10]: ≥ 90% | mortality at 1 µg/cm2 [4]: ≥ 70% | mortality at 1.25 µg/mL [5]: ≥ 90%

N#CCN(C(=O)c1cc(-c2cnn(-c3c(Cl)cc(C(F)(C(F)(F)F)C(F)(F)F)cc3Cl)c2)cnc1Cl)C1(C#N)CC1 [Compound 11]
mortality at 1 µg/cm2 [2]: ≥ 70% | mortality at 1.25 µg/mL [3]: ≥ 90% | mortality at 0.3125 µg/mL [1, 6]: 100% | mortality at 0.625 µg/mL [1, 7]: 100% | mortality at 1.25 µg/mL [1, 8]: 100% | mortality at 1.25 µg/mL [1, 10]: ≥ 90% | mortality at 1 µg/cm2 [4]: ≥ 70% | mortality at 1.25 µg/mL [5]: ≥ 90%

N#CCCN(C(=O)c1cc(-c2cnn(-c3c(Cl)cc(C(F)(C(F)(F)F)C(F)(F)F)cc3Cl)c2)cnc1Cl)C1(C#N)CC1 [Compound 12]
mortality at 1 µg/cm2 [2]: ≥ 70% | mortality at 1.25 µg/mL [3]: ≥ 90% | mortality at 0.3125 µg/mL [1, 6]: 100% | mortality at 0.625 µg/mL [1, 7]: 100% | mortality at 1.25 µg/mL [1, 8]: 100% | mortality at 1.25 µg/mL [1, 10]: ≥ 90% | mortality at 1 µg/cm2 [4]: ≥ 70% | mortality at 1.25 µg/mL [5]: ≥ 90%

N#CCN(C(=O)c1cc(-c2cnn(-c3c(Br)cc(C(F)(C(F)(F)F)C(F)(F)F)cc3Br)c2)cnc1Cl)C1CC1 [Compound 18]
mortality at 1 µg/cm2 [2]: ≥ 70% | mortality at 1.25 µg/mL [3]: ≥ 90% | mortality at 1.25 µg/mL [1, 10]: ≥ 90% | mortality at 1 µg/cm2 [4]: ≥ 70% | mortality at 1.25 µg/mL [5]: ≥ 90%

N#CCN(C(=O)c1cc(-c2cnn(-c3c(Cl)cc(C(F)(C(F)(F)F)C(F)(F)F)cc3Br)c2)cnc1Cl)C1CC1 [Compound 32]
mortality at 1 µg/cm2 [2]: ≥ 70% | mortality at 1.25 µg/mL [3]: ≥ 90% | mortality at 1.25 µg/mL [1, 10]: ≥ 90% | mortality at 1 µg/cm2 [4]: ≥ 70% | mortality at 1.25 µg/mL [5]: ≥ 90%

N#CCCN(C(=O)c1cc(-c2cnn(-c3c(Cl)cc(C(F)(C(F)(F)F)C(F)(F)F)cc3Br)c2)cnc1Cl)C1CC1 [Compound 33]
mortality at 1 µg/cm2 [2]: ≥ 70% | mortality at 1.25 µg/mL [3]: ≥ 90% | mortality at 1.25 µg/mL [1, 10]: ≥ 90% | mortality at 1 µg/cm2 [4]: ≥ 70% | mortality at 1.25 µg/mL [5]: ≥ 90%

N#CCCCN(C(=O)c1cc(-c2cnn(-c3c(Cl)cc(C(F)(C(F)(F)F)C(F)(F)F)cc3Br)c2)cnc1Cl)C1CC1 [Compound 34]
mortality at 1 µg/cm2 [2]: ≥ 70% | mortality at 1.25 µg/mL [3]: ≥ 90% | mortality at 1.25 µg/mL [1, 10]: ≥ 90% | mortality at 1 µg/cm2 [4]: ≥ 70% | mortality at 1.25 µg/mL [5]: ≥ 90%

N#CCN(C(=O)c1cc(-c2cnn(-c3c(Br)cc(C(F)(C(F)(F)F)C(F)(F)F)cc3C(F)(F)F)c2)cnc1Cl)C1CC1 [Compound 46]
mortality at 1 µg/cm2 [2]: ≥ 70% | mortality at 1.25 µg/mL [3]: ≥ 90% | mortality at 1.25 µg/mL [1, 10]: ≥ 90% | mortality at 1 µg/cm2 [4]: ≥ 70% | mortality at 1.25 µg/mL [5]: ≥ 90%

N#CCN(C(=O)c1cc(-c2cnn(-c3c(Cl)cc(C(F)(C(F)(F)F)C(F)(F)F)cc3C(F)(F)F)c2)cnc1Cl)C1CC1 [Compound 60]
mortality at 1 µg/cm2 [2]: ≥ 70% | mortality at 1.25 µg/mL [3]: ≥ 90% | mortality at 1.25 µg/mL [1, 10]: ≥ 90% | mortality at 1 µg/cm2 [4]: ≥ 70% | mortality at 1.25 µg/mL [5]: ≥ 90%

N#CCN(C(=O)c1cc(-c2cnn(-c3c(Br)cc(C(F)(C(F)(F)F)C(F)(F)F)cc3OC(F)(F)F)c2)cnc1Cl)C1CC1 [Compound 74]
mortality at 1 µg/cm2 [2]: ≥ 70% | mortality at 1.25 µg/mL [3]: ≥ 90% | mortality at 1.25 µg/mL [1, 10]: ≥ 90% | mortality at 1 µg/cm2 [4]: ≥ 70% | mortality at 1.25 µg/mL [5]: ≥ 90%

From patent publication US20250084058A1, “PHENYLPYRAZOLE COMPOUND AND APPLICATION THEREOF” (priority 2022, published 2025)
